{"source": "patent US20240327415A1", "about": "“Multicomponent Complexes, Including Salts, Crystalline Forms, and Hydrates and Solvates of ENT1 Inhibitors” (iTeos Belgium SA, priority 2023, published 2024)", "experiment": "solid form screen of Compound 1 di(hydrogen sulfate), XRPD damp and dried (Example 1)", "format": "physicochemical", "method": "Example 1—Solid Form Screen of Compound 1 Di(Hydrogen Sulfate): Amorphous Compound 1 di(hydrogen sulfate) (made in accordance with Example 7) was prepared and then subject to various crystallization techniques—temperature cycling, evaporation, crash cooling, solvent drop grinding, anti-solvent addition—each of which is described in more detail below. In addition, a reactive crystallization experiment was also conducted on Compound 1, which is a free base.\nTemperature Cycling: Approximately 20 mg of Amorphous Compound 1 di(hydrogen sulfate) was added to 24×1.5 mL screw cap vials. Into each vial, the appropriate solvent system was added in 50 μL aliquots in an attempt to form slurries at 40° C. When the addition was completed, the samples were temperature-cycled between 40° C. and 5° C., using 0.1° C./min ramp and 1 hr hold between steps. After about 24 hours of cycling, anti-solvent addition at 40° C. was carried out on samples that were clear solutions. Temperature cycling was continued for all samples for a total of 48 hours. After 48 hours of cycling, any solids present in the samples were isolated via centrifugation and analyzed damp by XRPD to assess the polymorphic form.\nEvaporation: Solutions of Amorphous Compound 1 di(hydrogen sulfate) were prepared in different solvent systems. […] The solutions were then left open to allow the solvents to evaporate at ambient. Solids observed post-evaporation were analyzed by XRPD.\nCrash Cooling: Solutions of Amorphous Compound 1 di(hydrogen sulfate) were prepared in different solvent systems. […] The solutions were placed in a refrigerator to crash-cool the samples to about 5° C. for 48 hours. Solids observed at this point were analyzed by XRPD. The rest of the samples where no solids were observed were placed in a freezer to allow the samples to crash-cool further to about −20° C. After about 48 hours in the freezer, samples with solids were analyzed by XRPD. For samples where solids were still not observed, anti-solvent addition was carried out at 5° C., and the samples returned to the freezer. After 4 days in the freezer post-ASA, any solids present were analyzed by XRPD.\nSolvent Drop Grinding: 15-20 mg of Amorphous Compound 1 di(hydrogen sulfate) was added to 24×2 mL bead mill tubes. Into each tube, 5 μL of the appropriate solvent system was added at ambient. Two small stainless-steel beads were placed in each tube, and the samples were milled using the following program: (1) Speed=5000 rpm; (2) Cycle=10×90 s; (3) Pause=10 s; (4) Repeat=duplicate. For samples where dissolution was suspected during the milling, additional amorphous material was added, and the milling program repeated. When the milling program was completed, the residual solids were analyzed by XRPD.\nAnti-solvent Addition: 20-25 mg of Amorphous Compound 1 di(hydrogen sulfate) was added to 24×1.5 mL screw cap vials. Into each vial, 100 μL of the appropriate solvent system was added at 25° C. to form solutions. Where complete dissolution was not observed, an additional 400 μL of solvent was added and the samples were stirred at 50° C. to allow further dissolution. The mother liquors of these samples were needle-filtered into a new set of vials. To all the solutions, anti-solvent addition was carried out at 25° C. Where sufficient precipitation was observed post-ASA, these were isolated and analyzed by XRPD. Where thin slurries or clear solutions were observed post-ASA, these were cooled to 5° C. at 0.1° C./min and stirred at 5° C. for ca 18 h. Any solids present were isolated and analyzed by XRPD.\nReactive Crystallization: 15-20 mg of Compound 1 was added to 18×1.5 mL screw cap vials. Into each vial, 100 μL of the appropriate solvent system was added at 40° C. 2.05 mole equiv. of H2SO4 was also added to the vials as solutions in 100 μL of the respective solvent systems. The samples were stirred at 40° C. for another approximately 30 mins, cooled to 5° C. at 0.1° C./min and left stirring at 5° C. for about 18 h. […]", "note": "Counter-ions that a name gives are not always drawn.", "data": [{"compound": "COc1cc(C(=O)O[C@@H]2CCCOc3cc(cc(OC)c3OC)C(=O)NCCCN3CCCN(CC2)CC3)cc(OC)c1OC", "note": "[Compound 1 di(hydrogen sulfate)]", "values": [{"measurement": "XRPD (Damp) Evaporation", "setting": "1,4-Dioxane", "value": "2, PC"}, {"measurement": "XRPD (Damp) Temp cycling", "setting": "1,4-Dioxane", "value": "2, PC"}, {"measurement": "XRPD (Dried) Anti-solvent addition", "setting": "1,4-Dioxane", "value": "Am"}, {"measurement": "XRPD (Dried) Evaporation", "setting": "1,4-Dioxane", "value": "2, PC"}, {"measurement": "XRPD (Dried) Solvent drop grinding", "setting": "1,4-Dioxane", "value": "Am"}, {"measurement": "XRPD (Dried) Temp cycling", "setting": "1,4-Dioxane", "value": "2, PC"}, {"measurement": "XRPD (Damp) Anti-solvent addition", "setting": "1-Propanol", "value": "2, PC"}, {"measurement": "XRPD (Damp) Solvent drop grinding", "setting": "1-Propanol", "value": "2, PC"}, {"measurement": "XRPD (Dried) Anti-solvent addition", "setting": "1-Propanol", "value": "2, PC"}, {"measurement": "XRPD (Dried) Temp cycling", "setting": "1-Propanol", "value": "Am"}, {"measurement": "XRPD (Damp) Evaporation", "setting": "2-Methyl THF", "value": "2, PC"}, {"measurement": "XRPD (Dried) Anti-solvent addition", "setting": "2-Methyl THF", "value": "Am"}, {"measurement": "XRPD (Dried) Evaporation", "setting": "2-Methyl THF", "value": "2, PC"}, {"measurement": "XRPD (Dried) Solvent drop grinding", "setting": "2-Methyl THF", "value": "Am"}, {"measurement": "XRPD (Dried) Temp cycling", "setting": "2-Methyl THF", "value": "Am"}, {"measurement": "XRPD (Damp) Evaporation", "setting": "2-Propanol", "value": "2, PC"}, {"measurement": "XRPD (Dried) Anti-solvent addition", "setting": "2-Propanol", "value": "Am"}, {"measurement": "XRPD (Dried) Reactive cryst.", "setting": "2-Propanol", "value": "Am"}, {"measurement": "XRPD (Dried) Temp cycling", "setting": "2-Propanol", "value": "Am"}, {"measurement": "XRPD (Damp) Evaporation", "setting": "2-propanol:water (50:50% v/v)", "value": "2, PC"}, {"measurement": "XRPD (Dried) Evaporation", "setting": "2-propanol:water (50:50% v/v)", "value": "2, PC"}, {"measurement": "XRPD (Damp) Crash cooling", "setting": "2-propanol:water (75:25% v/v)", "value": "2, PO"}, {"measurement": "XRPD (Damp) Reactive cryst.", "setting": "2-propanol:water (75:25% v/v)", "value": "2, PC"}, {"measurement": "XRPD (Dried) Crash cooling", "setting": "2-propanol:water (75:25% v/v)", "value": "2, PO"}, {"measurement": "XRPD (Damp) Evaporation", "setting": "Acetone", "value": "2, PC"}, {"measurement": "XRPD (Damp) Temp cycling", "setting": "Acetone", "value": "2, PC"}, {"measurement": "XRPD (Dried) Anti-solvent addition", "setting": "Acetone", "value": "Am"}, {"measurement": "XRPD (Dried) Evaporation", "setting": "Acetone", "value": "2, PC"}, {"measurement": "XRPD (Dried) Solvent drop grinding", "setting": "Acetone", "value": "Am"}, {"measurement": "XRPD (Dried) Temp cycling", "setting": "Acetone", "value": "2, PC"}, {"measurement": "XRPD (Damp) Evaporation", "setting": "Acetonitrile", "value": "6, PC"}, {"measurement": "XRPD (Dried) Evaporation", "setting": "Acetonitrile", "value": "6+, PC"}, {"measurement": "XRPD (Dried) Solvent drop grinding", "setting": "DCM", "value": "Am"}, {"measurement": "XRPD (Dried) Anti-solvent addition", "setting": "DMF", "value": "Am"}, {"measurement": "XRPD (Dried) Solvent drop grinding", "setting": "DMF", "value": "Am"}, {"measurement": "XRPD (Dried) Anti-solvent addition", "setting": "DMSO", "value": "Am"}, {"measurement": "XRPD (Dried) Solvent drop grinding", "setting": "DMSO", "value": "Am"}, {"measurement": "XRPD (Dried) Evaporation", "setting": "Ethanol:water (90:10% v/v)", "value": "2, PC"}, {"measurement": "XRPD (Dried) Reactive cryst.", "setting": "Ethyl Acetate", "value": "Am"}, {"measurement": "XRPD (Dried) Solvent drop grinding", "setting": "Ethyl Acetate", "value": "Am"}, {"measurement": "XRPD (Dried) Temp cycling", "setting": "Ethyl Acetate", "value": "Am"}, {"measurement": "XRPD (Dried) Solvent drop grinding", "setting": "Isopropyl Acetate", "value": "Am"}, {"measurement": "XRPD (Dried) Temp cycling", "setting": "Isopropyl Acetate", "value": "Am"}, {"measurement": "XRPD (Damp) Temp cycling", "setting": "MEK", "value": "2, PC"}, {"measurement": "XRPD (Dried) Solvent drop grinding", "setting": "MEK", "value": "Am"}, {"measurement": "XRPD (Dried) Temp cycling", "setting": "MEK", "value": "2, PC"}, {"measurement": "XRPD (Damp) Solvent drop grinding", "setting": "Methanol", "value": "2, PC"}, {"measurement": "XRPD (Dried) Reactive cryst.", "setting": "Methanol", "value": "Am"}, {"measurement": "XRPD (Dried) Solvent drop grinding", "setting": "Methanol", "value": "2, PC"}, {"measurement": "XRPD (Dried) Temp cycling", "setting": "Methanol", "value": "Am"}, {"measurement": "XRPD (Dried) Reactive cryst.", "setting": "MiBK", "value": "Am"}, {"measurement": "XRPD (Dried) Solvent drop grinding", "setting": "MiBK", "value": "Am"}, {"measurement": "XRPD (Dried) Temp cycling", "setting": "MiBK", "value": "Am"}, {"measurement": "XRPD (Damp) Evaporation", "setting": "THF", "value": "2, PC"}, {"measurement": "XRPD (Dried) Evaporation", "setting": "THF", "value": "2, PC"}, {"measurement": "XRPD (Dried) Solvent drop grinding", "setting": "THF", "value": "Am"}, {"measurement": "XRPD (Dried) Solvent drop grinding", "setting": "Toluene", "value": "Am"}, {"measurement": "XRPD (Dried) Temp cycling", "setting": "Toluene", "value": "Am"}]}]}
